{"source": "patent US11360010B1", "about": "“Methods and device for controlled cell stretch and imaging” (The Regents of the University of Colorado, a body, priority 2019, dated 2022)", "key": {"[1]": {"tested_on": "mouse embryonic skin fibroblasts (MSFs)", "assay": "Live imaging of nuclear area and chromatin condensation (H2b-eGFP) during cyclic stretch routines", "format": "cell-based", "settings": "for change in nuclear area / chromatin condensation (H2b histogram kurtosis and skewness): BAPTA 50 μM, KN-62 10 μM, cytochalasin D 2 μM", "description": "(§1) Transgenic mice harboring a fluorescence tag at the H2b histone—B6.Cg-Tg (HIST1H2BB/EGFP) 1 Pa/J, Stock No: 006069—were obtained from Jackson Laboratory (Bar Harbor, Me.). All animal procedures were performed following Institutional Animal Care & Use Committee approval. Skin from embryonic mice was harvested 18.5 days post-conception. Skin was minced, washed with Hank's Balanced Salt Solution (HBSS), and incubated in 35 mm dishes in shallow medium (˜0.5 mL) to avoid floating of the tissue for 4 days, during which fibroblasts extruded from the tissue. After 4 days, remaining tissue was removed (picked out with a pipette), and extruded cells in the dish were detached using TrypLE (Gibco, Gaithersburg, Md.) and expanded in culture for another 2 days before being seeded into stretch chambers for experiments. The inner well of assembled stretch chambers was ozone activated for 30 s via corona arc discharge (BD-20; Electro-Technic Products) and coated with 50 μg/mL bovine plasma fibronectin (F1141; Sigma-Aldrich) in a total volume of 250 μL overnight at 37° C. Mouse embryonic skin fibroblasts (MSFs) were seeded into stretch chambers at a density of 80,000 cells/cm′ 1 day before experiments. MSFs were extruded and cultured in DMEM (ATCC, Manassas, Va.) containing 10% fetal bovine serum (Gibco), 1% penicillin-streptomycin (Gibco), and 25 mM HEPES (Gibco) at 37° C. and 5% CO2. To inhibit calcium signaling, MSFs were incubated with 50 μM BAPTA (A4926; Sigma-Aldrich) or 10 μM KN-62 (12142; Sigma-Aldrich) 1 h before cyclic strain experiments. To disrupt actin polymerization, MSFs were incubated with 2 μM cytochalasin D (C8273; Sigma-Aldrich) 30 min before experiments. Vehicle controls were incubated with 0.001% DMSO (276855; Sigma-Aldrich) 1 h before experiments. To test the use of chromatin dyes, cells were stained with Hoechst (NucBlue Live ReadyProbes; Life Technologies) 30 min before experiments. Stretch experiments were performed at 25° C. (room temperature) under humidified conditions.\nThe stretch device was mounted on an inverted epi-fluorescence microscope (Ti-Eclipse; Nikon) with a 60× water immersion objective (0.26 μm/pixel) and an EMCCD camera (iXonEM+; Andor Technology). The surrounding of the microscope was humidified to prevent the water on the objective from evaporating during the 1 h experiment. Oil immersion is also possible, but water immersion provided better image quality with the silicone membranes used.\nUsing MATLAB, a sinusoidal control signal (1 Hz) was sent to the Arduino controller, resulting in a cyclic stretch routine of the membrane (FIG. 1C), with peak strains set to 5% (−0.1 V), 10% (−0.9 V), and 20% (−2.25 V) as determined by the calibration curve. Cells were cyclically stretched for 30 min, followed by 30 min of rest, during which 2 μm z-stacks (0.5 μm steps) of nuclei were acquired. During the rest period, cells experienced no stretch but a constant magnetic field using the offset Arduino input voltage (0.8 V) that keeps the piston suspended at 0% stretch. For acquisition, the cyclic stretch routine was paused for 1 min to allow for a steady imaging plane and fine readjustments in z-position due to water evaporation. Unstretched control cells (0%) were seeded into stretch chambers but kept stationary on the microscope without any magnetic field applied. Unstretched magnetic control cells (MAG) were placed stationary inside the coil without the piston, and a magnetic field corresponding to a 20% sinusoidal stretch routine was applied.\nA custom MATLAB code was used to track nuclear outlines via H2b-eGFP and to generate H2b intensity histograms during an image series, from which changes in nuclear area, H2b skewness, and H2b kurtosis were calculated."}, "[2]": {"tested_on": "mouse embryonic skin fibroblasts (MSFs)", "assay": "Perinuclear F-actin and γH2a.x staining after cyclic stretch routines", "format": "cell-based", "settings": "BAPTA 50 μM, KN-62 10 μM, cytochalasin D 2 μM", "description": "as §1\nMSFs were fixed in 4% ice-cold paraformaldehyde (PFA) for 10 min, permeabilized with 1% Triton-X100 in phosphate-buffered saline for 15, min and blocked with 10% NGS, 1% bovine serum albumin in 0.1% PBT (0.1% Tween-20 in phosphate-buffered saline) for 60 min. Primary incubation of Phospho-Histone H2A.X Ser139 (9718S; Cell Signaling Technology, Danvers, Mass.) was performed at 4° C. overnight in 0.1% PBT containing 1% bovine serum albumin at 1:400. Secondary incubation of goat anti-rabbit IgG-AF546 (Life Technologies) was performed in primary incubation buffer for 45 min at 22° C. at a dilution of 1:500. F-actin was counterstained with phalloidin-CF405 (Biotium, Fremont, Calif.) for 30 min at a dilution of 1:30. Staining was performed in containment wells. After staining, membranes were cut out of the containment well using a circular punch and mounted cell-side up onto #1.0 glass slides with ProLong Diamond Antifade Mountant (Life Technologies). Image stacks (5 μm, 1 μm step) of multiple nuclei in a 318×318 μm area were acquired on a Nikon MR confocal microscope using a 40× oil immersion objective (0.31 μm/pixel). A custom MATLAB code was used to track nuclear outlines via H2b-eGFP and to quantify perinuclear F-actin intensities and γH2a.x foci in projected image stacks. Only the projected F-actin within the nuclear outline (apical perinuclear F-actin) was counted in this analysis. To account for variations in staining and imaging (the same imaging settings were used), fluorescence channels were histogram normalized. Perinuclear F-actin intensities were calculated as the sum of normalized phalloidin intensities within a nuclear border. DNA damage foci were determined by detecting 2D peaks in the normalized γH2a.x channel using the MATLAB script FastPeakFind (v. 1.7)."}, "[3]": {"settings": "30 min 5% cyclic strain, 1 Hz, vs NT/VH cells (area increases)"}, "[4]": {"settings": "30 min 5% cyclic strain, 1 Hz, vs NT/VH cells (condensation decreases)"}, "[5]": {"settings": "30 min 20% cyclic strain, 1 Hz, vs NT/VH cells (area decreases)"}, "[6]": {"settings": "30 min 20% cyclic strain, 1 Hz, vs NT/VH cells (condensation increases)"}, "[7]": {"settings": "static magnetic-field-only routine (MAG), no stretch"}, "[8]": {"settings": "after 30 min 5% cyclic stretch, vs NT or VH control cells"}, "[9]": {"settings": "after 30 min 20% cyclic stretch, vs NT or VH control cells"}, "[10]": {"settings": "20% cyclic strain 30 min, Hoechst-stained vs unstained (H2b) nuclei"}}, "note": "Entries after “also recorded” stand apart in the source; their conditions may differ."}
{"smiles": "O=C(O)CN(CC(=O)O)c1ccccc1OCCOc1ccccc1N(CC(=O)O)CC(=O)O", "note": "[BAPTA]", "values": [{"measurement": "change in nuclear area", "setting": "[1]; [3]", "result": "abrogated the increase in nuclear area"}, {"measurement": "chromatin condensation (H2b histogram kurtosis and skewness)", "setting": "[1]; [4]", "result": "abrogated the increase in nuclear area and decrease in chromatin condensation"}, {"measurement": "change in nuclear area", "setting": "[1]; [5]", "result": "only minorly effected"}, {"measurement": "change in nuclear area", "setting": "[1]; 30 min 20% cyclic strain, 1 Hz, vs NT/VH cells (area decreases), listed as BP", "result": "had no effect"}, {"measurement": "chromatin condensation (H2b histogram kurtosis and skewness)", "setting": "[1]; [6]", "result": "only minorly effected"}, {"measurement": "chromatin condensation (H2b histogram kurtosis and skewness)", "setting": "[1]; 30 min 20% cyclic strain, 1 Hz, vs NT/VH cells (condensation increases), listed as BP", "result": "had no effect"}, {"measurement": "change in nuclear area", "setting": "[1]; [7]", "result": "interfered with the slight decrease in nuclear area"}, {"measurement": "chromatin condensation (H2b histogram kurtosis and skewness)", "setting": "[1]; [7]", "result": "interfered with the slight decrease in nuclear area and increase in chromatin condensation"}, {"measurement": "number of γH2a.x foci per nucleus (DNA damage, double-strand breaks)", "setting": "[2]; [8]", "result": "showed no difference"}, {"measurement": "perinuclear F-actin intensities", "setting": "[2]; after 30 min 5% cyclic stretch, vs NT or VH control cells, listed as BP", "result": "abrogated increases; also recorded: abrogated the increase"}, {"measurement": "number of γH2a.x foci per nucleus (DNA damage, double-strand breaks)", "setting": "[2]; [9]", "result": "showed no difference"}, {"measurement": "number of γH2a.x foci per nucleus (DNA damage, double-strand breaks)", "setting": "[2]; static magnetic-field-only controls (MAG), listed as BP", "result": "increased DNA damage"}]}
{"smiles": "CCOc1ccc(-c2nc3ccc(-c4nc5ccc(N6CCN(C)CC6)cc5[nH]4)cc3[nH]2)cc1", "note": "[Hoechst, Hoechst 33342]", "values": [{"measurement": "change in nuclear area during stretch", "setting": "[1]; [10]", "result": "reduction in nuclear area similar to unstained nuclei"}, {"measurement": "chromatin condensation (histogram kurtosis and skewness) during stretch", "setting": "[1]; [10]", "result": "reduced chromatin condensation; also recorded: Reduced chromatin compaction"}, {"measurement": "change in nuclear area during rest", "setting": "[1]; 30 min rest after 20% cyclic strain, Hoechst-stained vs unstained (H2b) nuclei", "result": "no regain in nuclear areas; also recorded: no recovery; also recorded: no relaxation"}]}
{"smiles": "CN([C@@H](Cc1ccc(OS(=O)(=O)c2cccc3cnccc23)cc1)C(=O)N1CCN(c2ccccc2)CC1)S(=O)(=O)c1cccc2cnccc12", "note": "[KN-62]", "values": [{"measurement": "change in nuclear area", "setting": "[1]; [3]", "result": "abrogated the increase in nuclear area"}, {"measurement": "chromatin condensation (H2b histogram kurtosis and skewness)", "setting": "[1]; [4]", "result": "abrogated the increase in nuclear area and decrease in chromatin condensation"}, {"measurement": "change in nuclear area", "setting": "[1]; [5]", "result": "only minorly effected"}, {"measurement": "change in nuclear area", "setting": "[1]; 30 min 20% cyclic strain, 1 Hz, vs NT/VH cells (area decreases), listed as KN", "result": "had no effect"}, {"measurement": "chromatin condensation (H2b histogram kurtosis and skewness)", "setting": "[1]; [6]", "result": "only minorly effected"}, {"measurement": "chromatin condensation (H2b histogram kurtosis and skewness)", "setting": "[1]; 30 min 20% cyclic strain, 1 Hz, vs NT/VH cells (condensation increases), listed as KN", "result": "had no effect"}, {"measurement": "change in nuclear area", "setting": "[1]; [7]", "result": "interfered with the slight decrease in nuclear area"}, {"measurement": "chromatin condensation (H2b histogram kurtosis and skewness)", "setting": "[1]; [7]", "result": "interfered with the slight decrease in nuclear area and increase in chromatin condensation"}, {"measurement": "number of γH2a.x foci per nucleus (DNA damage, double-strand breaks)", "setting": "[2]; [8]", "result": "showed no difference"}, {"measurement": "perinuclear F-actin intensities", "setting": "[2]; after 30 min 5% cyclic stretch, vs NT or VH control cells, listed as KN", "result": "abrogated increases; also recorded: abrogated the increase"}, {"measurement": "number of γH2a.x foci per nucleus (DNA damage, double-strand breaks)", "setting": "[2]; [9]", "result": "showed no difference"}, {"measurement": "number of γH2a.x foci per nucleus (DNA damage, double-strand breaks)", "setting": "[2]; static magnetic-field-only controls (MAG), listed as KN", "result": "increased DNA damage"}]}
